For test [1], the target named is T1, NRP‐1/VEGFR‐1 interaction (Homo sapiens, UniProt O14786).
T1 construct: purchased R&D Systems 3870-N1 (NRP-1); 321-FL-050 (VEGFR-1/Fc)
T1 sequence (O14786 22-644 isoform O14786-2 limits assumed): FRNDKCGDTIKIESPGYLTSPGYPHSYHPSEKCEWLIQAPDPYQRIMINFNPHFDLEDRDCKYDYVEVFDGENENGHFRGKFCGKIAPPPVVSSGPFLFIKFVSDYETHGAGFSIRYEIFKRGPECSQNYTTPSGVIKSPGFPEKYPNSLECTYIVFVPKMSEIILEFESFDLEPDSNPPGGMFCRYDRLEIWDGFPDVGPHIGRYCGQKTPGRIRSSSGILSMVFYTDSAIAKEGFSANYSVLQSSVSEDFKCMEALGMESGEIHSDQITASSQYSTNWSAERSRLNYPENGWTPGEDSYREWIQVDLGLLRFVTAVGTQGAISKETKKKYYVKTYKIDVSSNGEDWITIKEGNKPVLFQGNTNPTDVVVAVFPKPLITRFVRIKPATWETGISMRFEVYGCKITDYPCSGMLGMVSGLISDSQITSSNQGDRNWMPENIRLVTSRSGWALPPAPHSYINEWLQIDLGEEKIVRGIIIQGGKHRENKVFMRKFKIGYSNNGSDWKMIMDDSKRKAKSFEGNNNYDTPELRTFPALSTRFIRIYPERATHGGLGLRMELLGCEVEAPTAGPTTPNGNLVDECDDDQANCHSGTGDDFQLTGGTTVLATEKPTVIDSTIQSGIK
Description: SPR, inhibition of NRP‐1/VEGFR‐1 interaction. It is filed as binding. Conditions: in words, NRP‐1 immobilized, VEGFR‐1 5 nM. The method, then:
Fig. 2 Flt2‐11 peptide inhibits NRP‐1 binding to VEGFR‐1. SPR analysis of the interaction between VEGFR‐1 and NRP‐1 in peptide absence (A), or presence of Flt2‐11 peptide (B) or scrambled Flt2‐11 peptide (C). NRP‐1 is immobilized on the sensor chip. (A) VEGFR‐1 is injected at different concentrations (from bottom to top: 0.6 nM, cyan; 1 nM, red; 2 nM, green; 2.5 nM, blue; and 5 nM, black). […] (B) VEGFR‐1 is injected at 5 nM together with peptide Flt2‐11 at different concentrations (from top to bottom: 0, black; 5 nM, blue; 15 nM, green; 45 nM, red; 100 nM, cyan; and 800 nM, magenta). […] (C) VEGFR‐1 is injected at 5 nM together with ‘scrambled’ Flt2‐11 peptide at different concentrations (from top to bottom: 0, black; 0.5 μM, blue; 950 μM, geen; and […], red).
SPR experiments were carried out using a BIACORE X system (Biacore AB, Uppsala, Sweden). […] The reaction was carried out in 20 mM sodium acetate at pH 5.0, which is about 2 points below the theoretical NRP‐1 isoelectric point calculated using the program pI‐tool. […]
RU express the mass concentration‐dependent changes in the observed SPR signal, that is, the refractive index on the sensor chip surface. Changes in this signal are determined by the interaction between the immobilized protein (i.e., either NRP‐1 or VEGFR‐1) with the analyte protein (i.e., VEGFR‐1/Fc, α5β1 integrin or semaphorin 3A). […]
For orientation: SPR reads the build-up and loss of mass on a sensor chip optically.

Test [2] has as its system EC (HUVEC) adhesion to sVEGFR‐1. Description: Cell adhesion assay, EC adhesion to sVEGFR‐1. It is filed as cell-based, human. Particulars: for effect on EC adhesion to sVEGFR‐1: peptide 20 µg·mL^−1 during adhesion, 37 °C, 1 h, 20 µg·mL^−1 VEGFR‐1/Fc coating, crystal violet, 540 nm, triplicate. The method, then:
(§1) Human umbilical vein endothelial cells (HUVEC) were isolated from freshly delivered umbilical cords, as previously described, cultured in Endothelial Cell Growth Medium‐2 Kit from Clonetics (EGM‐2, CC4176, Lonza, Basel, Switzerland), and used up to passage 6. For functional assays, HUVEC were resuspended in Endothelial Basal Medium‐2 (EBM‐2, CC3156, Lonza). A pool of cells derived from four different individuals was used.
(§2) Solid support for adhesion assay was prepared by incubating immunological 96‐multiwell plates with 20 µg·mL^−1 VEGFR‐1/Fc chimera, or fibronectin solubilized in PBS. After 2 h, the coating solution was removed, and the well surface was blocked with 3% BSA in PBS for 18 h, before plating ECs in serum‐free medium at 3 × 10^4 cells per well. After incubation at 37 °C for 1 h, the wells were washed with PBS and attached cells were fixed with 3% formaldehyde and stained with 0.5% crystal violet. Attachment efficiency was determined by quantitative dye extraction and spectrophotometric measurement of the absorbance at 540 nm, using a Microplate reader 3550‐UV (Bio‐Rad). In competition experiments, peptides Flt2‐11, scrambled Flt2‐11, Flt2‐8 or Flt2‐5, at 20 µg·mL^−1, were added during the adhesion assay. Adhesion to peptide 12 was carried out by using maleic anhydride activated microplates (Reacti‐Bind, Pierce, Rockford, IL, USA) coated with 500 µg·mL^−1 of the peptide.

Test [3] has as its system EC (HUVEC) adhesion to fibronectin. Description: Cell adhesion assay, EC adhesion to fibronectin. It is filed as cell-based, human. The method, then: as §1, §2
Test [4] relates to HUVEC migration towards sVEGFR‐1. Description: Migration assay (Boyden chamber) towards sVEGFR‐1. It is filed as cell-based, human. Particulars: peptide 40 µM, 30 min preincubation; sVEGFR‐1 5 µg·mL^−1; 2 h, 37 °C; triplicate. The method, then:
as §1
Cell migration was analysed using Boyden chambers equipped with 8 µm pore diameter polycarbonate filters (Nuclepore, Whatman Incorporated, Clifton, NJ, USA). Human sVEGFR‐1 stimulus (5 µg·mL^−1) for chemotaxis was added to the lower chamber and HUVEC (1.5 × 10^5) were loaded into the upper chamber. […] Cells were then loaded into the Boyden chambers without removing the peptides, and migration towards sVEGFR‐1 was analysed. […] Cells from the upper surface were removed by wiping with a cotton swab, and the chemotactic response was determined by counting the migrating cells attached to the lower surface of the filter in 12 randomly selected microscopic fields (×200 magnification) per experimental condition. Quantification was performed by two independent observers, blinded to the examined condition.

Test [5] has as its target T2, Recombinant human NRP‐1 (human, UniProt O14786 22-856).
T2 construct: Neuropilin-1, human, recombinant soluble protein; see the vendor's datasheet (as far as I recall an extracellular fragment with a C-terminal His tag); also called Neuropilin‐1; soluble NRP‐1; source: bought: R&D Systems (3870‐N1)
T2 sequence (looked up): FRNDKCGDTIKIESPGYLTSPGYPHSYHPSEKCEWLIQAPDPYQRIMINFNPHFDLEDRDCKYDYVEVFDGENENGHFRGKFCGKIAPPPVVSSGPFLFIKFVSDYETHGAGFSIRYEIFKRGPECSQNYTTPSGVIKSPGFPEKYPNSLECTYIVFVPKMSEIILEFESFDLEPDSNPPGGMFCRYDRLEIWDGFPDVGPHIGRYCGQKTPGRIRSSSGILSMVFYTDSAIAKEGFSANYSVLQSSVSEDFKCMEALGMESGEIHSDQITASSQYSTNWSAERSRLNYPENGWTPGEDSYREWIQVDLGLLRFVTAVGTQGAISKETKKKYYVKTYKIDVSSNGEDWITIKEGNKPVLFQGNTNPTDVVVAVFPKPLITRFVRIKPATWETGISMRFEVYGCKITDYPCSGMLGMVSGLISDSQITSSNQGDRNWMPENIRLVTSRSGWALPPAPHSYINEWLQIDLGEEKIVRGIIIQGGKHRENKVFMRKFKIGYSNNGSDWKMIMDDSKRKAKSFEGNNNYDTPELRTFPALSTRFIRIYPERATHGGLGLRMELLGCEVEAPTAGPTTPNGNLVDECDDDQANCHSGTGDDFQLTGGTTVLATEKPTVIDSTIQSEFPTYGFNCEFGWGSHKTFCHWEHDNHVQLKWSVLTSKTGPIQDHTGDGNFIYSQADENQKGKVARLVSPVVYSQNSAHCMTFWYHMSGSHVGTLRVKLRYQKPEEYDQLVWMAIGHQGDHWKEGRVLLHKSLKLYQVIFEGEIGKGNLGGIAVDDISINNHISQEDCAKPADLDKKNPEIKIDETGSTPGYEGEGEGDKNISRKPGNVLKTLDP
Description: SPR; competition: NRP-1 immobilised by amine coupling; protein analyte at a fixed concentration (VEGFR-1/Fc 5 nM; α5β1 integrin 200 nM; semaphorin 3A 200 nM) injected together with peptide at different concentrations; HEPES-buffered saline. Particulars: both partners purified.

Where [6] appears, read: ECs pretreated with soluble NRP‐1.

What is called Ki is the equilibrium dissociation constant of an inhibitor or competing ligand from its target.

Entries after “also recorded” stand apart in the source; their conditions may differ.

As to “LVPLKIKNTFT [scrambled Flt2‐11, containing the same residues as Flt2‐11 but in a different order, reference compound]”, the “effect on NRP‐1/VEGFR‐1 (sVEGFR‐1) interaction” value in test [1] is recorded as “had no effect on NRP‐1/VEGFR‐1 interaction; also recorded: inhibits NRP‐1/VEGFR‐1 interaction only at high concentrations”. Further, the “effect on EC adhesion to sVEGFR‐1” value in test [2] is reported as “does not affect EC adhesion”. The “effect on EC adhesion to fibronectin” value in test [3] (peptide 20 µg·mL^−1 during adhesion, 37 °C, 1 h, 20 µg·mL^−1 fibronectin coating, crystal violet, 540 nm, triplicate) is “does not affect EC adhesion”.

On to “NITVT [Flt2‐5, Flt2‐11 peptide variant comprising the first five N‐terminal residues]”, for which the “effect on NRP‐1/VEGFR‐1 (sVEGFR‐1) interaction” value in test [1] is recorded as “inhibiting NRP‐1/sVEGFR‐1 interaction as well”. Besides, the “effect on EC adhesion to sVEGFR‐1” value in test [2] is “same ability as the parent Flt2‐11 peptide to inhibit cell adhesion to; also recorded: able to significantly inhibit EC adhesion; also recorded: efficacy comparable to that of the parent eleven‐residue Flt2‐11 peptide”. Further, the “effect on EC migration towards sVEGFR‐1” value in test [4] was “same ability as the parent Flt2‐11 peptide to inhibit cell adhesion to, and migration towards, sVEGFR‐1; also recorded: migration towards, sVEGFR‐1 (Fig. 6C), to a similar extent as the Flt2‐11 peptide; also recorded: efficacy comparable to that of the parent eleven‐residue Flt2‐11 peptide”.

Take “soluble NRP‐1: Recombinant human NRP‐1 (3870‐N1), R&D Systems”: the “effect of soluble NRP‐1 on EC adhesion to sVEGFR‐1” value in test [2] (setting [6]) is recorded as “not detectably altered”; in test [2] (soluble NRP‐1 on coated plates prior to EC addition), “impaired”. Also, the “effect of soluble NRP‐1 on EC adhesion to fibronectin” value in test [3] (setting [6]) is listed as “not detectably altered”.

B1: Flt_(2‐11) peptide (peptide)
peptide: NITVTLKKFPL
notes: Unlabelled peptide, as co-injected in the SPR experiments; also called peptide Flt_(2‐11); source: synthetic peptide (Primm, Milan)
In the case of B1, in test [5], the Ki was 20 nM.

(Values after article PMC9290910, “Neuropilin‐1 is required for endothelial cell adhesion to soluble vascular endothelial growth factor receptor 1” (The Febs Journal, 2021).)
